Measurements as given in patent EP0975634B1, “FUNGICIDAL TRIFLUOROPHENYL-TRIAZOLOPYRIMIDINES” (BASF AKTIENGESELLSCHAFT, priority 1997, dated 1998).
Values after ≈ are worked out from the molar mass of the structure shown. Read-outs that look alike come from different tables or passages of the source.

Legend:
Altemaria solani = test: organism not typed; type: cell-based; details: for MIC: read-out: MIC (Minimum Inhibitory Concentration) ALTESO
Botrytis cinerea = test: microbe, parasite or virus in culture; type: cell-based; details: for MIC: Botrytis cinerea, read-out: MIC (Minimum Inhibitory Concentration) BOTRCI
Leptosphaeria nodorum = test: Minimum Inhibitory Concentration, serial dilution test; type: cell-based; details: for MIC: Parastagonospora nodorum, read-out: MIC (Minimum Inhibitory Concentration) LEPTNO
Phytophthora infestans = test: microbe, parasite or virus in culture; type: cell-based; details: for MIC: Phytophthora infestans, read-out: MIC (Minimum Inhibitory Concentration) PHYTIN; for MIC (Minimum Inhibitory Concentration) PHYTIN: total inhibition of mycelial growth, V8 nutrient solution, 6-12 days incubation at 18-25°C, visual inspection
[1] = system: Magnaporthe grisea f. sp. Oryzae; test: microbe, parasite or virus in culture; type: cell-based; details: for MIC: Pyricularia oryzae, read-out: MIC (Minimum Inhibitory Concentration) PYRIOR; for MIC (Minimum Inhibitory Concentration) PYRIOR: total inhibition of mycelial growth, V8 nutrient solution, 6-12 days incubation at 18-25°C, visual inspection
Pyrenophora teres = test: Minimum Inhibitory Concentration, serial dilution test; type: cell-based; details: for MIC: Pyrenophora teres, read-out: MIC (Minimum Inhibitory Concentration) PYRNTE
Uncinula necator = test: Control of powdery mildew on grapes, prophylactic greenhouse test; type: in vivo; details: grape cultivar Müller-Thurgau, application 3 days before infection, evaluation 21 days after infection; for activity at 3.13 ppm / activity at 6.25 ppm / activity at 12.5 ppm / activity at 25 ppm: Erysiphe necator, read-out: % activity (ABBOTT formula)
Rhizoctonia solani = test: Minimum Inhibitory Concentration, serial dilution test; type: cell-based; details: for MIC: Rhizoctonia solani, read-out: MIC (Minimum Inhibitory Concentration) RHISZO
[2] = total inhibition of mycelial growth, V8 nutrient solution, 6-12 days incubation at 18-25°C, visual inspection

Compound | MIC (Altemaria solani) [µg/mL] | MIC (Botrytis cinerea) [µg/mL] | MIC (Leptosphaeria nodorum; [2]) [µg/mL] | MIC [1] [µg/mL] | MIC (Pyrenophora teres; [2]) [µg/mL] | activity at 3.13 ppm (Uncinula necator; Concentration 3.13 ppm) [%] | activity at 6.25 ppm (Uncinula necator; Concentration 6.25 ppm) [%] | activity at 12.5 ppm (Uncinula necator; Concentration 12.50 ppm) [%] | activity at 25 ppm (Uncinula necator; Concentration 25.00 ppm) [%] | MIC (Minimum Inhibitory Concentration) ALTESO (Altemaria solani) [µg/mL] | MIC (Minimum Inhibitory Concentration) BOTRCI (Botrytis cinerea) [µg/mL] | MIC (Minimum Inhibitory Concentration) PHYTIN (Phytophthora infestans) [µg/mL] | MIC (Minimum Inhibitory Concentration) PYRIOR [1] [µg/mL] | other results
CC1CCN(c2c(-c3c(F)cc(F)cc3F)c(Cl)nc3ncnn23)CC1 [Example 2, 5-chloro-7-(4-methylpiperidin-1-yl)-6-(2,4,6-trifluorophenyl)-[1,2,4]triazolo[1,5-a]pyrimidine] | 40 (≈ 0.105 mM) | 100 (≈ 0.262 mM) | 6250 (≈ 16.4 mM) | 40 (≈ 0.105 mM) | 200 (≈ 0.524 mM) | 100 | 100 | 100 | 100 |  |  |  |  | MIC (Phytophthora infestans): 100000 µg/mL (≈ 262 mM)
Fc1cc(F)c(-c2c(Cl)nc3ncnn3c2NC2CC3CCC2C3)c(F)c1 (stereo not shown) [Example 11, 5-chloro-7-(N-norborn-2-ylamino)-6-(2,4,6-trifluorophenyl)-[1,2,4]triazolo[1,5-a]pyrimidine] |  |  |  |  |  | 64 | 93 | 100 | 100 |  |  |  |  | 
Fc1cc(F)c(-c2c(Cl)nc3ncnn3c2NCC(F)(F)F)c(F)c1 [Example 12, 5-chloro-7-(N-2,2,2-trifluoroethylamino)-6-(2,4,6-trifluorophenyl)-[1,2,4]triazolo[1,5-a]pyrimidine] | 1560 (≈ 4.09 mM) | 1560 (≈ 4.09 mM) | 6250 (≈ 16.4 mM) | 200 (≈ 0.524 mM) | 6250 (≈ 16.4 mM) | 97 | 100 | 100 | 100 |  |  |  |  | MIC (Phytophthora infestans): 25000 µg/mL (≈ 65.5 mM); MIC (Rhizoctonia solani; [2]): 6250 µg/mL (≈ 16.4 mM)
CC(C)CN(CC(F)(F)F)c1c(-c2c(F)cc(F)cc2F)c(Cl)nc2ncnn12 [Example 26, 5-chloro-7-(N-2-methylpropyl-N-2,2,2-trifluoroethylamino)-6-(2,4,6-trifluorophenyl)-[1,2,4]triazolo[1,5-a]pyrimidine] | 200 (≈ 0.457 mM) | 200 (≈ 0.457 mM) | 390 (≈ 0.891 mM) | 40 (≈ 0.0914 mM) |  | 0 | 14 | 22 | 27 |  |  |  |  | MIC (Rhizoctonia solani; [2]): 3130 µg/mL (≈ 7.15 mM)
CN(CC(F)(F)F)c1c(-c2c(F)cc(F)cc2F)c(Cl)nc2ncnn12 [Example 27, 5-chloro-7-(N-methyl-N-2,2.2-trifluoroethylamino)-6-(2,4,6-trifluorophenyl)-[1,2,4]triazolo[1,5-a]-pyrimidine] |  |  |  |  |  |  |  |  |  | 780 (≈ 1.97 mM) | 3130 (≈ 7.91 mM) | 110000 (≈ 278 mM) | 100 (≈ 0.253 mM) | MIC (Minimum Inhibitory Concentration) LEPTNO (Leptosphaeria nodorum; [2]): 50000 µg/mL (≈ 126 mM); MIC (Minimum Inhibitory Concentration) PYRNTE (Pyrenophora teres; [2]): 12500 µg/mL (≈ 31.6 mM); MIC (Minimum Inhibitory Concentration) RHISZO (Rhizoctonia solani; [2]): 1560 µg/mL (≈ 3.94 mM); % activity (ABBOTT formula) (Uncinula necator; Concentration 3.13 ppm): 0%; % activity (ABBOTT formula) (Uncinula necator; Concentration 6.25 ppm): 0%; % activity (ABBOTT formula) (Uncinula necator; Concentration 12.50 ppm): 11%; % activity (ABBOTT formula) (Uncinula necator; Concentration 25.00 ppm): 17%
CC(Nc1c(-c2c(F)cc(F)cc2F)c(Cl)nc2ncnn12)C(F)(F)F (stereo not shown) [Example 28, 5-chloro-7-[N-2-(1,1,1-trifluoropropyl)-amino]-6-(2,4,6-trifluorophenyl)-[1,2,4]triazolo[1,5-a]pyrimidine] |  |  |  |  |  |  |  |  |  | 780 (≈ 1.97 mM) | 3130 (≈ 7.91 mM) | 110000 (≈ 278 mM) | 780 (≈ 1.97 mM) | MIC (Minimum Inhibitory Concentration) LEPTNO (Leptosphaeria nodorum; [2]): 3130 µg/mL (≈ 7.91 mM); MIC (Minimum Inhibitory Concentration) PYRNTE (Pyrenophora teres; [2]): 6250 µg/mL (≈ 15.8 mM); MIC (Minimum Inhibitory Concentration) RHISZO (Rhizoctonia solani; [2]): 3130 µg/mL (≈ 7.91 mM); % activity (ABBOTT formula) (Uncinula necator; Concentration 3.13 ppm): 97%; % activity (ABBOTT formula) (Uncinula necator; Concentration 6.25 ppm): 100%; % activity (ABBOTT formula) (Uncinula necator; Concentration 12.50 ppm): 100%; % activity (ABBOTT formula) (Uncinula necator; Concentration 25.00 ppm): 100%
C[Si](C)(C)CN(CC(F)(F)F)c1c(-c2c(F)cc(F)cc2F)c(Cl)nc2ncnn12 [Example 40, 5-chloro-7-[N-(2.2,2-trifluoroethyl)-N-(trimethylsiiylmethyl)-amino]-6-(2.4,6-trifiuorophenyl)-[1,2,4]triazolo[1,5-a]pyrimidine] |  |  |  |  |  |  |  |  |  | 780 (≈ 1.67 mM) | 6250 (≈ 13.4 mM) | 25000 (≈ 53.4 mM) | 1560 (≈ 3.33 mM) | MIC (Minimum Inhibitory Concentration) LEPTNO (Leptosphaeria nodorum): 110000 µg/mL (≈ 235 mM); MIC (Minimum Inhibitory Concentration) PYRNTE (Pyrenophora teres): 25000 µg/mL (≈ 53.4 mM); MIC (Minimum Inhibitory Concentration) RHISZO (Rhizoctonia solani): 110000 µg/mL (≈ 235 mM)
OC1CCCN(c2c(-c3c(F)cc(F)cc3F)c(Cl)nc3ncnn23)C1 (stereo not shown) [Example 41, 5-chloro-7-(3-hydroxypiperidin-1-yl)-6-(2,4,6-trifluorophenyl)-[1,2,4]triazolo[1,5-a]-pyrimidine] | 6250 (≈ 16.3 mM) | 100000 (≈ 261 mM) | 50000 (≈ 130 mM) | 12500 (≈ 32.6 mM) | 25000 (≈ 65.1 mM) |  |  |  |  |  |  |  |  | 
Fc1cc(F)c(-c2c(Cl)nc3ncnn3c2NC(c2ccccc2)C(F)(F)F)c(F)c1 (stereo not shown) [Example 52, 5-chloro-7-[N-(1-phenyl-2,2,2-trifluoroethyl)-amino]-6-(2,4,6-trifluorophenyl)-[1,2,4]triazolo[1,5-a]pyrimidine] | 3130 (≈ 6.84 mM) | 12500 (≈ 27.3 mM) |  | 1560 (≈ 3.41 mM) | 3130 (≈ 6.84 mM) |  |  |  |  |  |  |  |  | 
CC(C)CCN(C)c1c(-c2c(F)cc(F)cc2F)c(Cl)nc2ncnn12 [Example 54, 5-chloro-7-[N-(3-methylbutyl)-N-methylamino]-6-(2,4,6-trifluorophenyl)-[1,2,4]triazolo[1,5-a]pyrimidine] | 780 (≈ 2.03 mM) | 3130 (≈ 8.16 mM) | 12500 (≈ 32.6 mM) | 40 (≈ 0.104 mM) | 3130 (≈ 8.16 mM) |  |  |  |  |  |  |  |  | 
CC(C)C(Nc1c(-c2c(F)cc(F)cc2F)c(Cl)nc2ncnn12)C(F)(F)F (stereo not shown) [Example 55, 5-chloro-7-[N-2-(3-methyl-1,1,1-trifluorobutyl)-amino]-6-(2,4,6-trifluorophenyl)-[1,2,4]triazolo[1,5-a]-pyrimidine] |  |  |  |  |  |  |  |  |  | 390 (≈ 0.92 mM) | 1560 (≈ 3.68 mM) | 100000 (≈ 236 mM) | 40 (≈ 0.0944 mM) | MIC (Minimum Inhibitory Concentration) LEPTNO (Leptosphaeria nodorum; [2]): 1560 µg/mL (≈ 3.68 mM); MIC (Minimum Inhibitory Concentration) PYRNTE (Pyrenophora teres; [2]): 6250 µg/mL (≈ 14.7 mM); MIC (Minimum Inhibitory Concentration) RHISZO (Rhizoctonia solani; [2]): 12500 µg/mL (≈ 29.5 mM)
CCCC(Nc1c(-c2c(F)cc(F)cc2F)c(Cl)nc2ncnn12)C(C)C (stereo not shown) [Example 57, 5-chloro-7-[3-(2-methylhexyl)-amino]-6-(2,4,6-trifluorophenyl)-[1,2,4]triazolo[5-a]-pyrimidine] |  |  |  |  |  |  |  |  |  | 200 (≈ 0.503 mM) | 390 (≈ 0.98 mM) | 110000 (≈ 276 mM) | 40 (≈ 0.101 mM) | MIC (Minimum Inhibitory Concentration) LEPTNO (Leptosphaeria nodorum; [2]): 780 µg/mL (≈ 1.96 mM); MIC (Minimum Inhibitory Concentration) PYRNTE (Pyrenophora teres; [2]): 3130 µg/mL (≈ 7.87 mM); MIC (Minimum Inhibitory Concentration) RHISZO (Rhizoctonia solani; [2]): 110000 µg/mL (≈ 276 mM)
OC(c1ccc(Cl)cc1)(c1cncnc1)c1ccccc1Cl (stereo not shown) [Fenarimol, reference compound] |  |  |  |  |  | 31 | 75 | 95 | 99 |  |  |  |  | 
CCCC(Cn1cncn1)c1ccc(Cl)cc1Cl (stereo not shown) [Penconazole, reference compound] |  |  |  |  |  | 11 | 17 | 31 | 58 |  |  |  |  | 
CC1CCN(c2c(-c3c(F)cccc3Cl)c(Cl)nc3ncnn23)CC1 [standard^1, 5-chloro-7-(4-methylpiperidin-1-yl)-6-(2-chloro-6-fluorophenyl)-[1,2,4]triazolo[1,5-a]pyrimidine, reference compound] |  |  |  |  |  | 31 | 42 | 44 | 73 |  |  |  |  | 
